Data: BindingDB's records for doi:10.1124/jpet.104.081539 (Kyowa Hakko Kogyo, 2005)

Legend:
[1] = target: T1, Prostaglandin G/H synthase 2 (Homo sapiens, UniProt P35354)
T1 sequence (P35354 whole entry): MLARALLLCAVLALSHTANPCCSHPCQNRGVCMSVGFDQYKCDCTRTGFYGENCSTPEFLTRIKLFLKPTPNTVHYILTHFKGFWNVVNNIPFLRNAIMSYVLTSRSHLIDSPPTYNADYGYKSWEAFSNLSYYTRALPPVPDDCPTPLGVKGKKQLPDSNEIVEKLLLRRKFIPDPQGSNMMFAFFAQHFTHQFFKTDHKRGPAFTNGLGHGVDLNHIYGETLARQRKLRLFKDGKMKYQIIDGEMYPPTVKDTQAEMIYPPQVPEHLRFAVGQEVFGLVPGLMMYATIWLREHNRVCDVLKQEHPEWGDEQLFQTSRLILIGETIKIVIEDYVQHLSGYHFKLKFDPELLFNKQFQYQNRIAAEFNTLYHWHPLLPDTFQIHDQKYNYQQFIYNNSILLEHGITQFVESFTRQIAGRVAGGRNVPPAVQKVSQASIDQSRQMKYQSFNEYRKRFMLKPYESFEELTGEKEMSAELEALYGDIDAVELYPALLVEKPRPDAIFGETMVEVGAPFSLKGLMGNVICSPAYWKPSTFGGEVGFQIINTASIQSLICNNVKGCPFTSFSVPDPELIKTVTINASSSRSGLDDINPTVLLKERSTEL

Histamine H1 receptor = Histamine H1 receptor (Homo sapiens, UniProt P35367)
[2] = target: T2, Alpha-1A adrenergic receptor (Rattus norvegicus, UniProt P43140)
T2 sequence (P43140 whole entry): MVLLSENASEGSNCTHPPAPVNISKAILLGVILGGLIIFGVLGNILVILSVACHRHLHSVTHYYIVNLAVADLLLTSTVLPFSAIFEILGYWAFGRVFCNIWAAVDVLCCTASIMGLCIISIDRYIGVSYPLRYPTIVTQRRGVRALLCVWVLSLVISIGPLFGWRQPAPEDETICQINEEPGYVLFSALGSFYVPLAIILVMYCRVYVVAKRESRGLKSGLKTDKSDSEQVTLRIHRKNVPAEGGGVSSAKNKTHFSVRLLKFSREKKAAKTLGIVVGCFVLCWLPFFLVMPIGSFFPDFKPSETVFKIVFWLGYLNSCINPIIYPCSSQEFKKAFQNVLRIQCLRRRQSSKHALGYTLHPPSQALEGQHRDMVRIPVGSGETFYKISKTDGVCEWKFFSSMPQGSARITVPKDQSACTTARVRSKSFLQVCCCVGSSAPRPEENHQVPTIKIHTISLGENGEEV

[3] = target: Prostaglandin G/H synthase 1 (Homo sapiens, UniProt P23219)
[4] = target: T3, Muscarinic acetylcholine receptor M1 (Homo sapiens, UniProt P11229)
T3 sequence (P11229 whole entry): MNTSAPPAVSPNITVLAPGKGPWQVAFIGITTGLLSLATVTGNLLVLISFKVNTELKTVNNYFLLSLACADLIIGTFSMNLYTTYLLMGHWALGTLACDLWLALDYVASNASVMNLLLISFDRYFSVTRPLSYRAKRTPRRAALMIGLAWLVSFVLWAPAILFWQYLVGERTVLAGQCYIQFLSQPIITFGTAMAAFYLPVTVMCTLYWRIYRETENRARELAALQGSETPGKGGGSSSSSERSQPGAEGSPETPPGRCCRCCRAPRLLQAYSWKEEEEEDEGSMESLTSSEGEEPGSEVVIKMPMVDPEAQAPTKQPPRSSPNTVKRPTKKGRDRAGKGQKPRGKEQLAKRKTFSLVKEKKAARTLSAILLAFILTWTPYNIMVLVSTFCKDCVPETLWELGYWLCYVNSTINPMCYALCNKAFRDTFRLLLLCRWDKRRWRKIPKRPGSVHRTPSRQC

[5] = target: Leukotriene B4 receptor 1 (Homo sapiens) (UniProt Q15722)
Thromboxane A2 receptor = target: T4, Thromboxane A2 receptor (Homo sapiens, UniProt P21731)
T4 sequence (P21731 whole entry): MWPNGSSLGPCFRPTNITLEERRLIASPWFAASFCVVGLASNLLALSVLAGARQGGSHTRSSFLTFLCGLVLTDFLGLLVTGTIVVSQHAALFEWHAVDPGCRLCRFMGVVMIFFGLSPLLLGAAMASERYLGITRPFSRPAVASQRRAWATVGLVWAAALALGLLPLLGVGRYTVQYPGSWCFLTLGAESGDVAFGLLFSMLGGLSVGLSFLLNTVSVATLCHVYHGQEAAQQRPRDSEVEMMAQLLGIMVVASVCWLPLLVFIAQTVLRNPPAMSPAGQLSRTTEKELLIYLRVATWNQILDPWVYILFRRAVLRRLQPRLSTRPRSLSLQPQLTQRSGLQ

[6] = target: T5, 5-hydroxytryptamine receptor 1A (Homo sapiens, UniProt P08908)
T5 sequence (P08908 whole entry): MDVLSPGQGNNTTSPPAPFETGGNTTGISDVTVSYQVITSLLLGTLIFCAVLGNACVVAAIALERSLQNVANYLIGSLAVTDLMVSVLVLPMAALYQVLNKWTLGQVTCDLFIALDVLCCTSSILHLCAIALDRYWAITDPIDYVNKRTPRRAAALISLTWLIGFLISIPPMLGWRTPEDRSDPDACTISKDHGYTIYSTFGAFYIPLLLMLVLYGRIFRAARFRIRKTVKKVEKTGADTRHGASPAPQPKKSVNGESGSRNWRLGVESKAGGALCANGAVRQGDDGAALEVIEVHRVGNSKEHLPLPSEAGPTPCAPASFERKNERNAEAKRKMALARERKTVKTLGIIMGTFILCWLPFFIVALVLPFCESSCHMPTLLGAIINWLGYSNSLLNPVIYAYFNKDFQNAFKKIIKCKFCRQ

Sequence of Leukotriene B4 receptor 1 (Homo sapiens) (Q15722 whole entry, looked up): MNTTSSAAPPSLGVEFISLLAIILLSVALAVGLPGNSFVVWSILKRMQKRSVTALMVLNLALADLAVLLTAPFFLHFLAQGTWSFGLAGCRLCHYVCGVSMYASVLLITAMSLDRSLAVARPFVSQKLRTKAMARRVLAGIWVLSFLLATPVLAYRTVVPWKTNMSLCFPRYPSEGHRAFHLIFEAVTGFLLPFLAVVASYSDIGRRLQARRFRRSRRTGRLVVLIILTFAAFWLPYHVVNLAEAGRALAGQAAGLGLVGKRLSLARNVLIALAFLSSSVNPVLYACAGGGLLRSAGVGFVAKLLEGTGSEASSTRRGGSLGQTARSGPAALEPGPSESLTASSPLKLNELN
Sequence of Prostaglandin G/H synthase 1 (P23219 whole entry): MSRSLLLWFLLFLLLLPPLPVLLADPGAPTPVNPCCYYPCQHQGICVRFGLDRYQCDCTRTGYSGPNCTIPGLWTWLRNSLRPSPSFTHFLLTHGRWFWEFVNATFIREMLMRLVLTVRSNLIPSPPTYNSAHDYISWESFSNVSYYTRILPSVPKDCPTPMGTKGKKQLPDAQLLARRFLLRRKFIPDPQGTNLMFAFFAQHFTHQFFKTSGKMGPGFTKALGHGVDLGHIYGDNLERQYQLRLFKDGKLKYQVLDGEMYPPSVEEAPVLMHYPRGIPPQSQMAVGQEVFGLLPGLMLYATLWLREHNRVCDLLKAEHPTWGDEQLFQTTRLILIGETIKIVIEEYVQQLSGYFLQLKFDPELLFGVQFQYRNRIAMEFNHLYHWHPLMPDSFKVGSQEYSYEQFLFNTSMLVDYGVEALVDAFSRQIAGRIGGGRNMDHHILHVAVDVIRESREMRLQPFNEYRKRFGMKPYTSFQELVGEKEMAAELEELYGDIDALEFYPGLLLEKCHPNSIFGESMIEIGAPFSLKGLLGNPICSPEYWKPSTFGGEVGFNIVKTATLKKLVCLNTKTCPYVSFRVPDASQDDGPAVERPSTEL
Sequence of Histamine H1 receptor (P35367 whole entry): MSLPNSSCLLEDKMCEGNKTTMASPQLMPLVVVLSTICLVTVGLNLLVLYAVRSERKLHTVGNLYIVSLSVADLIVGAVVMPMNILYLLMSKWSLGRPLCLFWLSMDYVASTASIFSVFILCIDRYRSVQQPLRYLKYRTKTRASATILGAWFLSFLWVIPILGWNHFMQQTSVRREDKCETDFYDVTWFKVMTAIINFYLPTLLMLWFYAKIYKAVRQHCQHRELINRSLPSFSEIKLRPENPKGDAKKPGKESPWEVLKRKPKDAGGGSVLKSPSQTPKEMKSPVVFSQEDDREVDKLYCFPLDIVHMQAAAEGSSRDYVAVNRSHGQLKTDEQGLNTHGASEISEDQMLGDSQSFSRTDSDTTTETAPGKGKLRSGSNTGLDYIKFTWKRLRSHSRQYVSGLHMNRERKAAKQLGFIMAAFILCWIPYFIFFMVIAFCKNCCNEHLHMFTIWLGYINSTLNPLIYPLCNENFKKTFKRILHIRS

Ki [1]	Ki (Histamine H1 receptor)	Ki [2]	Ki [3]	Ki [4]	Ki [5]	Ki (Thromboxane A2 receptor)	Ki [6]	SMILES
> 1 µM	> 1 µM	> 1 µM	> 1 µM	> 1 µM	> 1 µM	> 1 µM		CC(C)C(=O)N(c1ccccc1)C1CC(C)N(C(=O)c2ccccc2)c2ccccc21 (stereo not drawn) [K117]
> 1 µM	> 1 µM	> 1 µM	> 1 µM	> 1 µM	> 1 µM	> 1 µM	> 1 µM	CCC(=O)N1c2ccccc2C(N(C(C)=O)c2ccccc2)CC1C (stereo not drawn) [K376]
> 1 µM	> 1 µM	> 1 µM	> 1 µM	> 1 µM	> 1 µM	> 1 µM	> 1 µM	CC1CC(N(C(=O)C2CC2)c2ccccc2)c2ccccc2N1C(=O)c1ccccc1 (stereo not drawn) [K604]
